According to ChEMBL document CHEMBL3885861, “Open TG-GATES”:

Organism: Rattus norvegicus
Test: Open TG-GATES - Regimen: Single
Format: toxicity, organism-based, Sprague-Dawley
Set-up: regimen Single, gender Male, age 6 weeks
Conditions: in vivo, po, route gavage; for APTT / Bas / Eos / Fbg / Hb / Ht / Lym / MCH / MCHC / MCV / Mono / Neu / PT / Plat / RBC / Ret / WBC: tissue Blood; for KIDNEY_L / KIDNEY_R / KIDNEY_TOTAL: tissue Kidney; for LIVER: tissue Liver; for ALP / ALT / AST / CRE / DBIL / GLC / IP / K / LDH / Na / PL / RALB / TBIL / TC / TP / gamma-GTP: tissue Plasma
[1] = 300 mg/kg, 3 h, dose level Middle
[2] = 300 mg/kg, 6 h, dose level Middle
[3] = 300 mg/kg, 9 h, dose level Middle
[4] = 300 mg/kg, 24 h, dose level Middle
[5] = 1000 mg/kg, 3 h, dose level High
[6] = 1000 mg/kg, 6 h, dose level High
[7] = 1000 mg/kg, 9 h, dose level High
[8] = 1000 mg/kg, 24 h, dose level High

## Clc1ccccc1CN1CCc2sccc2C1 [TICLOPIDINE]
[1]
  TERMINAL_BW: 211.8 g
  APTT: 19.5 s
  Bas: 0%
  Eos: 1%
  Fbg: 220.8 mg/dL
  Hb: 13.1 g/dL
  Ht: 37.1%
  Lym: 73.4%
  MCH: 21.8 pg
  MCHC: 35.3%
  MCV: 61.6 fL
  Mono: 2.8%
  Neu: 21.6%
  PT: 12.2 s
  Plat: 124.1 x10_4/uL
  RBC: 602.2 x10_4/ul
  Ret: 8.4%
  WBC: 73.9 x10_2/uL
  KIDNEY_L: 0.9 g
  KIDNEY_R: 1 g
  KIDNEY_TOTAL: 1.9 g
  LIVER: 9 g
  ALP: 999 IU/L
  ALT: 36.2 IU/L
  AST: 74 IU/L
  CRE: 0.4 mg/dL
  DBIL: 0.078 mg/dL
  GLC: 194.2 mg/dL
  IP: 10.5 mg/dL
  K: 3.7 meq/L
  LDH: 161.4 IU/L
  Na: 141 meq/L
  PL: 129.2 mg/dL
  RALB: 3.3 g/dL
  TBIL: 0.1 mg/dL
  TC: 72.6 mg/dL
  TP: 5.4 g/dL
  gamma-GTP: 0.8 IU/L
[2]
  TERMINAL_BW: 209.7 g
  APTT: 18.1 s
  Bas: 0.2%
  Eos: 0.8%
  Fbg: 226.8 mg/dL
  Hb: 13.5 g/dL
  Ht: 39.1%
  Lym: 77%
  MCH: 21.1 pg
  MCHC: 34.5%
  MCV: 61.3 fL
  Mono: 2.4%
  Neu: 18.4%
  PT: 12.1 s
  Plat: 131 x10_4/uL
  RBC: 637.6 x10_4/ul
  Ret: 7.8%
  WBC: 76.9 x10_2/uL
  KIDNEY_L: 1 g
  KIDNEY_R: 1 g
  KIDNEY_TOTAL: 1.9 g
  LIVER: 9.1 g
  ALP: 909.6 IU/L
  ALT: 34 IU/L
  AST: 74.6 IU/L
  CRE: 0.4 mg/dL
  DBIL: 0.078 mg/dL
  GLC: 192 mg/dL
  IP: 10 mg/dL
  K: 3.9 meq/L
  LDH: 213 IU/L
  Na: 141 meq/L
  PL: 134 mg/dL
  RALB: 3.4 g/dL
  TBIL: 0.1 mg/dL
  TC: 76.2 mg/dL
  TP: 5.5 g/dL
  gamma-GTP: 1.2 IU/L
[3]
  TERMINAL_BW: 208.6 g
  APTT: 18.8 s
  Bas: 0.2%
  Eos: 1%
  Fbg: 226.8 mg/dL
  Hb: 13.3 g/dL
  Ht: 37.6%
  Lym: 76%
  MCH: 21.4 pg
  MCHC: 35.3%
  MCV: 60.7 fL
  Mono: 2%
  Neu: 20.2%
  PT: 12.7 s
  Plat: 132.7 x10_4/uL
  RBC: 621.4 x10_4/ul
  Ret: 7.2%
  WBC: 64 x10_2/uL
  KIDNEY_L: 0.9 g
  KIDNEY_R: 1 g
  KIDNEY_TOTAL: 1.9 g
  LIVER: 8.3 g
  ALP: 859.4 IU/L
  ALT: 31.2 IU/L
  AST: 65.4 IU/L
  CRE: 0.4 mg/dL
  DBIL: 0.072 mg/dL
  GLC: 197 mg/dL
  IP: 9.8 mg/dL
  K: 3.9 meq/L
  LDH: 129.6 IU/L
  Na: 142 meq/L
  PL: 129 mg/dL
  RALB: 3.3 g/dL
  TBIL: 0.1 mg/dL
  TC: 69.8 mg/dL
  TP: 5.5 g/dL
  gamma-GTP: 1.2 IU/L
[4]
  TERMINAL_BW: 212.9 g
  APTT: 19.8 s
  Bas: 0.4%
  Eos: 1%
  Fbg: 228.2 mg/dL
  Hb: 14.1 g/dL
  Ht: 39.5%
  Lym: 80.8%
  MCH: 22.1 pg
  MCHC: 35.6%
  MCV: 62.2 fL
  Mono: 2.4%
  Neu: 14.6%
  PT: 12.1 s
  Plat: 128.1 x10_4/uL
  RBC: 635.4 x10_4/ul
  Ret: 6.1%
  WBC: 76.1 x10_2/uL
  KIDNEY_L: 1 g
  KIDNEY_R: 1 g
  KIDNEY_TOTAL: 2 g
  LIVER: 9.5 g
  ALP: 1118.8 IU/L
  ALT: 35.2 IU/L
  AST: 66.6 IU/L
  CRE: 0.4 mg/dL
  DBIL: 0.078 mg/dL
  GLC: 182.2 mg/dL
  IP: 8.7 mg/dL
  K: 4 meq/L
  LDH: 120 IU/L
  Na: 142 meq/L
  PL: 146.6 mg/dL
  RALB: 3.5 g/dL
  TBIL: 0.1 mg/dL
  TC: 83.4 mg/dL
  TP: 5.6 g/dL
  gamma-GTP: 1 IU/L
[5]
  TERMINAL_BW: 212.3 g
  APTT: 17.9 s
  Bas: 0.2%
  Eos: 1%
  Fbg: 220.2 mg/dL
  Hb: 13 g/dL
  Ht: 36.9%
  Lym: 73.2%
  MCH: 21.4 pg
  MCHC: 35.3%
  MCV: 60.7 fL
  Mono: 2.8%
  Neu: 22.4%
  PT: 11.8 s
  Plat: 128.4 x10_4/uL
  RBC: 609.4 x10_4/ul
  Ret: 8.6%
  WBC: 61.1 x10_2/uL
  KIDNEY_L: 0.9 g
  KIDNEY_R: 0.9 g
  KIDNEY_TOTAL: 1.9 g
  LIVER: 9 g
  ALP: 991.8 IU/L
  ALT: 36 IU/L
  AST: 71.4 IU/L
  CRE: 0.4 mg/dL
  DBIL: 0.076 mg/dL
  GLC: 196.4 mg/dL
  IP: 10.7 mg/dL
  K: 3.8 meq/L
  LDH: 147.4 IU/L
  Na: 140.4 meq/L
  PL: 122 mg/dL
  RALB: 3.3 g/dL
  TBIL: 0.1 mg/dL
  TC: 69.8 mg/dL
  TP: 5.5 g/dL
  gamma-GTP: 0.8 IU/L
[6]
  TERMINAL_BW: 211.9 g
  APTT: 19.4 s
  Bas: 0%
  Eos: 1%
  Fbg: 230.6 mg/dL
  Hb: 13.5 g/dL
  Ht: 38.4%
  Lym: 71.8%
  MCH: 21.6 pg
  MCHC: 35.1%
  MCV: 61.4 fL
  Mono: 2%
  Neu: 24.6%
  PT: 12.2 s
  Plat: 118.7 x10_4/uL
  RBC: 625.2 x10_4/ul
  Ret: 8.6%
  WBC: 69.6 x10_2/uL
  KIDNEY_L: 0.9 g
  KIDNEY_R: 0.9 g
  KIDNEY_TOTAL: 1.8 g
  LIVER: 8.7 g
  ALP: 863 IU/L
  ALT: 31 IU/L
  AST: 69 IU/L
  CRE: 0.4 mg/dL
  DBIL: 0.082 mg/dL
  GLC: 190.8 mg/dL
  IP: 9.5 mg/dL
  K: 3.8 meq/L
  LDH: 196.2 IU/L
  Na: 141.8 meq/L
  PL: 149.8 mg/dL
  RALB: 3.4 g/dL
  TBIL: 0.1 mg/dL
  TC: 91 mg/dL
  TP: 5.7 g/dL
  gamma-GTP: 1 IU/L
[7]
  TERMINAL_BW: 212.4 g
  APTT: 18.1 s
  Bas: 0.2%
  Eos: 0.6%
  Fbg: 228.8 mg/dL
  Hb: 13.6 g/dL
  Ht: 38.4%
  Lym: 79.6%
  MCH: 21.5 pg
  MCHC: 35.4%
  MCV: 60.9 fL
  Mono: 2.2%
  Neu: 16.4%
  PT: 12.4 s
  Plat: 132.4 x10_4/uL
  RBC: 629.8 x10_4/ul
  Ret: 7.3%
  WBC: 61.3 x10_2/uL
  KIDNEY_L: 1 g
  KIDNEY_R: 0.9 g
  KIDNEY_TOTAL: 1.9 g
  LIVER: 8.8 g
  ALP: 1127.2 IU/L
  ALT: 25.6 IU/L
  AST: 65.2 IU/L
  CRE: 0.4 mg/dL
  DBIL: 0.076 mg/dL
  GLC: 201.4 mg/dL
  IP: 10 mg/dL
  K: 3.8 meq/L
  LDH: 200.8 IU/L
  Na: 142.4 meq/L
  PL: 141.4 mg/dL
  RALB: 3.6 g/dL
  TBIL: 0.1 mg/dL
  TC: 74.8 mg/dL
  TP: 5.6 g/dL
  gamma-GTP: 1 IU/L
[8]
  TERMINAL_BW: 208.4 g
  APTT: 22.1 s
  Bas: 0.4%
  Eos: 1.2%
  Fbg: 209 mg/dL
  Hb: 13.9 g/dL
  Ht: 38.9%
  Lym: 80.8%
  MCH: 21.4 pg
  MCHC: 35.7%
  MCV: 59.9 fL
  Mono: 1.8%
  Neu: 15%
  PT: 13.1 s
  Plat: 129.7 x10_4/uL
  RBC: 650 x10_4/ul
  Ret: 5.9%
  WBC: 63.6 x10_2/uL
  KIDNEY_L: 1 g
  KIDNEY_R: 0.9 g
  KIDNEY_TOTAL: 1.9 g
  LIVER: 9.6 g
  ALP: 1071.8 IU/L
  ALT: 27.8 IU/L
  AST: 64.6 IU/L
  CRE: 0.5 mg/dL
  DBIL: 0.084 mg/dL
  GLC: 196.4 mg/dL
  IP: 8.8 mg/dL
  K: 3.8 meq/L
  LDH: 141 IU/L
  Na: 142 meq/L
  PL: 143 mg/dL
  RALB: 3.6 g/dL
  TBIL: 0.1 mg/dL
  TC: 86 mg/dL
  TP: 5.7 g/dL
  gamma-GTP: 1.2 IU/L
